# Assay results from patent US20230190754A1, “Therapeutic combinations for the treatment of Progressive Fibrosing interstitial lung diseases” (Boehringer Ingelheim International GmbH, priority 2021, published 2023).
# Tested on: IPF patients
# Experiment: Phase II clinical trial in IPF patients: Treatment Emergent Adverse Events (safety/tolerability), up to 13 weeks
# [1] = AF-group (antifibrotic background), 18 mg b.i.d.
# Protocol: The participants were divided into 2 groups by chance (the “active agent group” and the “placebo group”). […] One 12 mg placebo tablet and one 6 mg placebo tablet (both containing no active ingredient, see Table 1) was administered orally to the patients of the second group twice daily (b.i.d.).
# The “active agent group” and the “placebo group” were further distributed to two different groups regarding background medication: the “AF-group” (“antifibrotic background medication group”) and the “Non-AF-group” (“no antifibrotic background medication group”). […] The combination of both nintedanib and pirfenidone as background medication was not allowed in the “AF-group”.
# The trial was a randomised, double-blind, placebo-controlled parallel group study.
structure (smiles),measurement,setting,value
[O-][S@+]1CCc2nc(N3CCC(c4ncc(Cl)cn4)CC3)nc(NC3(CO)CCC3)c21 [Comp. of form. III],"Arthralgia, %","AF Ninted., N = 26",(7.7) %
same,"Bronchitis, %","AF Ninted., N = 26",(3.8) %
same,"Condition aggravated, %","AF Ninted., N = 26",(3.8) %
same,"Cough, %","AF Ninted., N = 26",(7.7) %
same,"Decreased appetite, %","AF Ninted., N = 26",(7.7) %
same,"Diarrhoea, %","AF Ninted., N = 26",(46.2) %
same,"Dyspepsia, %","AF Ninted., N = 26",(3.8) %
same,"Fatigue, %","AF Ninted., N = 26",(3.8) %
same,"Flatulence, %","AF Ninted., N = 26",(3.8) %
same,"Gastrointestinal disorders, %","AF Ninted., N = 26",(46.2) %
same,"General Disorders and Administration Side conditions, %","AF Ninted., N = 26",(19.2) %
same,"Headache, %","AF Ninted., N = 26",(7.7) %
same,"Infections and infestations, %","AF Ninted., N = 26",(23.1) %
same,"Investigations, %","AF Ninted., N = 26",(26.9) %
same,"Metabolism and nutrition disorders, %","AF Ninted., N = 26",(11.5) %
same,"Musculoskeletal and connective tissue disorders, %","AF Ninted., N = 26",(7.7) %
same,"Nasopharyngitis, %","AF Ninted., N = 26",(15.4) %
same,"Nervous system disorders, %","AF Ninted., N = 26",(15.4) %
same,"Oedema peripheral, %","AF Ninted., N = 26",(3.8) %
same,"Pyrexia, %","AF Ninted., N = 26",(2.1) %
same,"Respiratory, thoracic and mediastinal disorders, %","AF Ninted., N = 26",(11.5) %
same,"Vomiting, %","AF Ninted., N = 26",(3.8) %
same,"Abdominal Pain, %","AF Pirf., N = 15",(4.3) %
same,"Asthenia, %","AF Pirf., N = 15",(4.3) %
same,"Condition aggravated, %","AF Pirf., N = 15",(4.3) %
same,"Constipation, %","AF Pirf., N = 15",(4.3) %
same,"Cough, %","AF Pirf., N = 15",(8.7) %
same,"Diarrhoea, %","AF Pirf., N = 15",(13.0) %
same,"Dizziness, %","AF Pirf., N = 15",(4.3) %
same,"Dyspepsia, %","AF Pirf., N = 15",(4.3) %
same,"Fatigue, %","AF Pirf., N = 15",(4.3) %
same,"Flatulence, %","AF Pirf., N = 15",(4.3) %
same,"Gastrointestinal disorders, %","AF Pirf., N = 15",(26.1) %
same,"General Disorders and Administration Side conditions, %","AF Pirf., N = 15",(8.7) %
same,"Headache, %","AF Pirf., N = 15",(4.3) %
same,"Infections and infestations, %","AF Pirf., N = 15",(4.3) %
same,"Investigations, %","AF Pirf., N = 15",(13.0) %
same,"Musculoskeletal and connective tissue disorders, %","AF Pirf., N = 15",(4.3) %
same,"Nausea, %","AF Pirf., N = 15",(4.3) %
same,"Nervous system disorders, %","AF Pirf., N = 15",(21.7) %
same,"Respiratory, thoracic and mediastinal disorders, %","AF Pirf., N = 15",(13.0) %
same,"Rhinorrhoea, %","AF Pirf., N = 15",(4.3) %
same,"Vomiting, %","AF Pirf., N = 15",(4.3) %
same,"AE resulting in death, patients %",[1],(2.0) %
same,"AE resulting in death, patients n",[1],1
same,"AE: Abdominal pain, patients %",[1],(2.0) %
same,"AE: Abdominal pain, patients n",[1],1
same,"AE: Arthralgia, patients %",[1],(4.1) %
same,"AE: Arthralgia, patients n",[1],2
same,"AE: Asthenia, patients %",[1],(2.0) %
same,"AE: Asthenia, patients n",[1],1
same,"AE: Bronchitis, patients %",[1],(2.0) %
same,"AE: Bronchitis, patients n",[1],1
same,"AE: Condition aggravated, patients %",[1],(4.1) %
same,"AE: Condition aggravated, patients n",[1],2
same,"AE: Constipation, patients %",[1],(2.0) %
same,"AE: Constipation, patients n",[1],1
same,"AE: Cough, patients %",[1],(8.2) %
same,"AE: Cough, patients n",[1],4
same,"AE: Decreased appetite, patients %",[1],(4.1) %
same,"AE: Decreased appetite, patients n",[1],2
same,"AE: Diarrhoea, patients %",[1],30.6%
same,"AE: Diarrhoea, patients n",[1],15
same,"AE: Dizziness, patients %",[1],(2.0) %
same,"AE: Dizziness, patients n",[1],1
same,"AE: Dyspepsia, patients %",[1],(4.1) %
same,"AE: Dyspepsia, patients n",[1],2
same,"AE: Fatigue, patients %",[1],(2.0) %
same,"AE: Fatigue, patients n",[1],1
same,"AE: Flatulence, patients %",[1],(4.1) %
same,"AE: Flatulence, patients n",[1],2
same,"AE: Gastrointestinal disorders, patients %",[1],36.7%
same,"AE: Gastrointestinal disorders, patients n",[1],18
same,"AE: General disorders and administration site conditions, patients %",[1],(14.3) %
same,"AE: General disorders and administration site conditions, patients n",[1],7
same,"AE: Headache, patients %",[1],(6.1) %
same,"AE: Headache, patients n",[1],3
same,"AE: Infections and infestations, patients %",[1],(14.3) %
same,"AE: Infections and infestations, patients n",[1],7
same,"AE: Investigations, patients %",[1],(20.4) %
same,"AE: Investigations, patients n",[1],10
same,"AE: Metabolism and nutrition disorders, patients %",[1],(6.1) %
same,"AE: Metabolism and nutrition disorders, patients n",[1],3
same,"AE: Musculoskeletal and connective tissue disorders, patients %",[1],(6.1) %
same,"AE: Musculoskeletal and connective tissue disorders, patients n",[1],3
same,"AE: Nasopharyngitis, patients %",[1],(8.2) %
same,"AE: Nasopharyngitis, patients n",[1],4
same,"AE: Nausea, patients %",[1],(2.0) %
same,"AE: Nausea, patients n",[1],1
same,"AE: Nervous system disorders, patients %",[1],(18.4) %
same,"AE: Nervous system disorders, patients n",[1],9
same,"AE: Oedema peripheral, patients %",[1],(2.0) %
same,"AE: Oedema peripheral, patients n",[1],1
same,"AE: Pyrexia, patients %",[1],(2.0) %
same,"AE: Pyrexia, patients n",[1],1
same,"AE: Respiratory, thoracic and mediastinal disorders, patients %",[1],(12.2) %
same,"AE: Respiratory, thoracic and mediastinal disorders, patients n",[1],6
same,"AE: Rhinorrhoea, patients %",[1],(2.0) %
same,"AE: Rhinorrhoea, patients n",[1],1
same,"AE: Vomiting, patients %",[1],(4.1) %
same,"AE: Vomiting, patients n",[1],2
same,"AE: Weight decreased, patients %",[1],(2.0) %
same,"AE: Weight decreased, patients n",[1],1
same,"AEs leading to discontinuation of trial drug, patients %",[1],(20.4) %
same,"AEs leading to discontinuation of trial drug, patients n",[1],10
same,"Any AE, patients n",[1],36
same,"SAE: Condition aggravated, patients %",[1],(4.1) %
